Data from patent publication US11078164B1, “PTEN binding compounds, formulations, and uses thereof” (University of South Florida, priority 2017, dated 2021).
Entries after “also recorded” stand apart in the source; their conditions may differ.

Tests used:
Type in all cases: cell-based
A549 cells [1] = assay: ECIS migration / wound closure assay; conditions: for wound closure efficiency (continuous impedance sensing): A549 cells, 12 hours prior to wounding, vs control cells; for cell migration (ECIS): A549 lung cancer cells
Protocol: Migration Assay. Migration assay was performed on the ECIS machine (Name, Address). Briefly, A549 cells were grown on electric cell substrate impedance sensing 8-well plate arrays (8W1E; Applied Biophysics, Troy, N.Y.) in F12K media as described above. Confluent cells were treated with media containing γ-AAPeptide at desired concentration for about 12 hours prior to wounding. Cells were wounded using an elevated field pulse of about […] at about 32,000 Hz applied for about 20 seconds, producing a uniform circular lesion of about […] in size, and wound closure was tracked until healing. The impedance (Z) was measured at about 32000 Hz, normalized to its value at the initiation of data acquisition, and plotted as a function of time. Assays were performed in triplicate and reported as mean±S.E. unless stated otherwise (p value of ≤0.05 was considered to be significant).

A549 cells [2] = assay: Cell proliferation assay (Cell Counting Kit-8); conditions: 24 hours treatment; 9000 cells/well; n=6
Protocol: Proliferation Assays. Cell proliferation studies were performed using the Cell Counting Kit-8 (Dojindo Molecular Technologies, Rockville, Md.). A549 cells were plated in a 96-well plate with a cell density of about 9000 cells/well and cultured in F12K medium as described above. Cells were treated with indicated amount of γ-AAPeptide diluted in F12K media for 24 hours. After 24 hours, final cell numbers were assessed as a function of absorbance at 450 nm of reduced WST-(2-(2-methoxy-4-nitrophenyl)-3-(4-nitrophenyl)-5-(2,4-disulfophenyl)-2H-tetrazolium, monosodium salt).

A549 cells [3] = assay: Flow cytometry cell cycle analysis; conditions: for cell cycle arrest: 24 hour treatment, vs vehicle treated cells
Protocol: Flow Cytometry Assay for Cell Cycle Analysis. Cell cycle analysis was performed on A549 cells treated with indicated amount of γ-AAPeptide at about 50-60% confluency for about 24 hours. After about 24 hours of indicated γ-AAPeptide treatment, cells were trypsinized and centrifuged at about 2,000 rpm for about 10 minutes. Media and trypsin were aspirated and cells were washed twice with PBS and spun at about 2,000 rpm for about 10 minutes at about 4° C. after each wash. Cells were then stained with trypan blue (Thermo Fisher Scientific, Waltham, Mass.) and counted using a hemocytometer. Cells were resuspended in Phosphate Buffered Saline (PBS) at a density of about 2×10^6 cells/mL. 1 mL of cells was fixed in about 3 mL ice cold absolute ethanol for about 1 hour at about 4° C. After fixing, cells were washed twice with PBS and spun at about 3,000 rpm for about 10 minutes at about 4° C. after each wash. About 1 mL of Propidium Iodide (P1) staining solution (about 3.8 mM sodium citrate, about 40 μg/mL PI and PBS to volume) was added to each cell pellet, along with about 50 μL of RNase A (Qiagen, Hilden, Germany) at a concentration of about 10 μg/mL. Cells were incubated at about 37° C. for about 20 minutes and sub-sequentially stored at 4° C. until analyzed by flow cytometry. Assays were performed in triplicate and reported as mean±S.E. (p value of ≤0.05 was considered to be significant).

[4] = test system: PTEN C-terminus (C-tail) cluster (Ser380, Thr382, Thr383, Ser385); assay: Immunoblot of PTEN C-tail phosphorylation in treated A549 cells; conditions: about 40 μM
Protocol: (§1) PTEN antagonizes PI3K/AKT/S6K pathway activation via its lipid phosphatase function (Stambolic et al., 1998, Cell, October 2; 95(1):29-39, Sun H., et al., 1999, Proc Natl Acad Sci USA. 1999 May 25; 96(11):6199-204 and Song, M. S. et al., 2012, Molecular Cell Biology 13, 283-296). A549 lung adenocarcinoma cells were treated with either γ-AAPeptide #43 or #9 for 6 hours to determine the activity of PI3K/AKT/S6K downstream pathway effectors. There was about a 30 percent and about 70 decrease in the phosphorylated, active form of AKT (pAKT-Ser473) upon treatment with 40 μM γ-AAPeptide #43 (FIG. 2A) or about 40 μM γ-AAPeptide #9 (FIG. 2B) respectively. […] However, direct allosteric effects of these compounds on the structure and catalytic function of the PTEN enzyme activity remains highly plausible.
Protein Isolation and Immuno-blotting. For treatment with γ-AAPeptides, A549 cells were grown to about 50-60% confluency in 6-well plates, treated with indicated amount of γ-AAPeptide and allowed to incubate for 6 hours at about 5% CO2 and 37° C. […] Protein concentration was determined using Bradford Dye Reagent (BioRad, Hercules, Calif.). […]

p-AKT (Ser473) = assay: Immunoblot of p-AKT (Ser473) in treated A549 cells; conditions: 6 hours; for expression of p-AKT (Ser473), immunoblot: 40 μM, n=3; for decrease in phosphorylated, active form of AKT (pAKT-Ser473): about 40 μM
Protocol: as §1
(§2) Protein Isolation and Immuno-blotting. For treatment with γ-AAPeptides, A549 cells were grown to about 50-60% confluency in 6-well plates, treated with indicated amount of γ-AAPeptide and allowed to incubate for 6 hours at about 5% CO2 and 37° C. After about 6 hours, media was aspirated and cells were lysed in ice cold IP Lysis Buffer (25 mM Tris-HCl pH 7.4, about 150 mM NaCl, about 1% NP-40, about 1 mM EDTA, about 5% glycerol) supplemented with about 100× protease inhibitor cocktail (Sigma Aldrich, St. Louis, Mo.), phosphatase inhibitor cocktail (final concentration about 10 mM sodium azide, about 10 mM NaF, about 4 mM sodium orthovanadate, about 10 mM sodium-molybdate dehydrate, about 4 mM sodium-tartrate dibasic dehydrate, about 5 mM EDTA disodium dehydrate, about 2 mM imidazole), about 1 mM DTT and about 1 mM PMSF. Samples were sonicated at about 10% amplitude on a digital sonifier (Branson Ultrasonics, Dabury, Conn.), centrifuged at about 14,000 rpm for about 10 minutes and the supernatant was collected. Protein concentration was determined using Bradford Dye Reagent (BioRad, Hercules, Calif.). The remaining supernatant was boiled in about 100 μL of 2× Laemmli Buffer containing about 5% β-mercaptoethanol (Sigma Aldrich, St. Louis, Mo.) and subjected to SDS-PAGE gel analysis, followed by immunoblotting. About 20 μg of total proteins from A549 cell extract were separated on a about 12% SDS-PAGE gel and electro-blotted to nitrocellulose membranes (about 0.45 μm; GE Healthcare, Pittsburgh, Pa.). Blots were blocked with about 5% nonfat dry milk or bovine serum albumin in TBST buffer (about 10 mM Tris, pH about 8, about 150 mM NaCl, about 0.1% Tween 20) and incubated with indicated primary antibodies (Table 1). Peroxidase conjugated mouse or rabbit secondary antibodies were used at dilution of about 1:10,000 (Jackson ImmunoResearch, West Grove, Pa.). […]

p-P70 S6K (Thr389) = assay: Immunoblot of p-P70 S6K (Thr389) in treated A549 cells; conditions: 40 μM, 6 hours; for expression of p-P70 S6K (Thr389), immunoblot: n=3
Protocol: as §1, §2

SMILES | wound closure efficiency (continuous impedance sensing) (A549 cells [1]; 20 μM) | cell migration (ECIS) (A549 cells [1]) | A549 cell proliferation (A549 cells [2]) | G1 cell population (A549 cells [3]; 20 μM, 24 hours) | G2 phase cell population (A549 cells [3]; 20 μM, 24 hours) | S phase population (A549 cells [3]; 20 μM, 24 hours) | cell cycle arrest (A549 cells [3]) | phosphorylation status of the PTEN C-terminus (C-tail) cluster [4] | expression of p-AKT (Ser473), immunoblot (p-AKT (Ser473)) | decrease in phosphorylated, active form of AKT (pAKT-Ser473) (p-AKT (Ser473)) | reduction of phosphorylated, active form of P70S6K (p-P70S6K-Thr389) levels (p-P70 S6K (Thr389)) | expression of p-P70 S6K (Thr389), immunoblot (p-P70 S6K (Thr389)) | wound closure efficiency (continuous impedance sensing) (A549 cells [1]; 30 μM) | G1 cell population (A549 cells [3]; 40 μM, 24 hours) | G2 phase cell population (A549 cells [3]; 40 μM, 24 hours) | S phase cell population (A549 cells [3]; 40 μM, 24 hours)
NCCCC[C@H](N)C(=O)N[C@@H](Cc1ccccc1)CN(CC(=O)N(Cc1cccc2ccccc12)Cc1cccc2ccccc12)C(=O)C[C@]12CC3C[C@H](C[C@H](C3)C1)C2 [#9] | decrease in wound closure efficiency | inhibit cell migration | reduced A549 cell proliferation in a dose dependent manner; also recorded: Dose-dependent inhibition | increase | increase | decreased | arrested the cell cycle in both G1 and G2 phases | did not appear to alter | significant decrease | about 70% | about 55% | significant decrease |  |  |  | 
NCCCC[C@H](N)C(=O)N[C@@H](Cc1ccccc1)CN(CC(=O)NCc1ccc(-c2ccccc2)cc1)C(=O)CC12CC3CC(CC(C3)C1)C2 [#43] |  | inhibit cell migration | reduced A549 cell proliferation in a dose dependent manner; also recorded: Dose-dependent inhibition |  |  |  | arrest cells in G1 phase | did not appear to alter | significant decrease | ~30% | about 75% | significant decrease | decrease in wound closure efficiency | increase | decreased | decreased
